Results on 1 compound are retold here after publication PMC6017357, “In Vitro Inhibitory Effects of Synthetic Cannabinoid EAM-2201 on Cytochrome P450 and UDP-Glucuronosyltransferase Enzyme Activities in Human Liver Microsomes” (Molecules : A Journal of Synthetic Chemistry and Natural …, 2018).

This assay has as its target T1, UGT1A6 (Homo sapiens, UniProt P19224).
T1 construct: ultrapooled human liver microsomes (0.2 mg/mL), 5 mM UDPGA; from tissue; host or cells: ultrapooled human liver microsomes
T1 sequence (P19224 27-532): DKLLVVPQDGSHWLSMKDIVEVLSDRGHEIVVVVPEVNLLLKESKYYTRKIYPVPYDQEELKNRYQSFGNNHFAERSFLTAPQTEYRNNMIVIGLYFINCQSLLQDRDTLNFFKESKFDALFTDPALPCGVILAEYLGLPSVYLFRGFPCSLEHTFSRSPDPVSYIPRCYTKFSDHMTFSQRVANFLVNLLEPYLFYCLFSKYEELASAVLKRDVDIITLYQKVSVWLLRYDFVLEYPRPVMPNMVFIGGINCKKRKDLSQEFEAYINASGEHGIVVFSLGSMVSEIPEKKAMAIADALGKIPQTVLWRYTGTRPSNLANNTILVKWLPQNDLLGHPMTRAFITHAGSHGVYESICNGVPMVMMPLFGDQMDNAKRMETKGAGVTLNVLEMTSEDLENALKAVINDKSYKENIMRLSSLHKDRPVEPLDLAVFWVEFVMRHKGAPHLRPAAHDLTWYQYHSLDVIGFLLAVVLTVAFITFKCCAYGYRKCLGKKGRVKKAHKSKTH
Description: UGT1A6-catalyzed N-acetylserotonin glucuronidation in human liver microsomes. The class given is in vitro ADME. Conditions: at 50 µM. As for the experimental part: The inhibitory effects of EAM-2201 on UGT1A1, UGT1A3, UGT1A4, UGT1A6, UGT1A9 and UGT2B7 were evaluated using LC-MS/MS and the cocktail of UGT substrates as previously described. Each incubation mixture was prepared in a final volume of 100 µL as follows: ultrapooled human liver microsomes (0.2 mg/mL), 5 mM UDPGA, 10 mM magnesium chloride, alamethicin (25 µg/mL), 50 mM Tris buffer (pH 7.4), various concentrations of EAM-2201 in DMSO (final concentrations of 1–50 µM, 0.5% DMSO) and the UGT enzyme-specific substrates of two cocktail sets (set A: 0.5 µM SN-38, 2 µM chenodeoxycholic acid and 0.5 µM trifluoperazine; set B: 1 µM N-acetylserotonin, 0.2 µM mycophenolic acid and 1 µM naloxone, acetonitrile content, 0.5%). […] Supernatant from sets A and B (50 µL of each) was mixed and aliquots (5 µL) were analyzed by LC-MS/MS. […]
The metabolites formed from the six UGT cocktail substrates were simultaneously measured using LC-MS/MS [41]. […] Each metabolite was quantified via SRM in the negative ion mode: chenodeoxycholic acid 24-acyl-β-glucuronide, 567.2 > 391.0; mycophenolic acid glucuronide, 495.2 > 318.9; and propofol glucuronide (IS), 353.3 > 177.1; and in the positive ion mode: SN-38 glucuronide, 569.0 > 393.0; trifluoperazine glucuronide, 584.2 > 408.1; N-acetylserotonin-β-D-glucuronide, 395.2 > 219.0; naloxone 3-β-D-glucuronide, 504.0 > 310.0; and meloxicam (IS), 352.0 > 115.1. […]
A general note: Liver microsomes are vesicles of endoplasmic reticulum, rich in cytochrome P450 enzymes.

Regarding `CCc1ccc(C(=O)c2cn(CCCCCF)c3ccccc23)c2ccccc12` [EAM-2201, (4-ethyl-1-naphthalenyl)[1-(5-fluoropentyl)-1H-indol-3-yl]-methanone], the “inhibition of UGT1A6-catalyzed N-acetylserotonin glucuronidation” value is “negligibly inhibited”.
